Assay results from US12606541B2, “PPARg modulators and methods of use” (Eisai R&D Management Co., Ltd., priority 2020, dated 2026).
Read-outs that look alike come from different tables or passages of the source.

Experiments:
[1] = biological target: T1, His6-TEV-PPARγ-(234-505) (Homo sapiens, UniProt P37231); assay: TR-FRET Assay to Measure Co-R Peptide Recruitment to PPARγ; type: biochemical; conditions: Co-R peptide (SMRT-ID2) recruitment; top final concentration 20 μM; read-out: TR-FRET i-Ag; AC50
T1 construct: The His6-TEV-PPARγ-(234-505) protein for assay was expressed and purified; TEV cleavage site (N); made in house
T1 sequence (P37231 234-505): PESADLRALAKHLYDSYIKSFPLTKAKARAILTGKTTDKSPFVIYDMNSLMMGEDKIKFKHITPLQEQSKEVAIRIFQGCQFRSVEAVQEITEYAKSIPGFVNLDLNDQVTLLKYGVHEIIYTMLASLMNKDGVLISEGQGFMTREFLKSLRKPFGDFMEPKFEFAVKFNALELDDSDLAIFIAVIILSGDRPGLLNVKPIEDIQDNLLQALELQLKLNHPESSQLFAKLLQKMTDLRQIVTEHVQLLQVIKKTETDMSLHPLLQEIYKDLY
Procedure, shortened: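 His-tagged PPARγ (or controls) was preincubated with compound for 20 minutes at room temperature, then 5 nM anti-His terbium antibody and 200 nM FITC-labeled SMRT-ID2 corepressor peptide (final) were added for a further hour. TR-FRET signal was normalized to percent response using 500 nM T0070907 and DMSO controls.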

[2] = system: UM-UC-9 engineered cells; assay: Cell proliferation / short-term viability assay, CellTiter-Glo 144 h; type: cell-based, human; conditions: read-out: CTGlo 144 h UMUC9.5, G150
Procedure, shortened: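 UM-UC-9 engineered assay-ready cells seeded at 500 cells/well in high-glucose DMEM/10% FBS, treated from dose-response plates, grown at 37° C, 5% CO2. CellTiter-Glo 2.0 luminescence read on day 7, with a day-0 pretreatment plate as T0 reference and DMSO wells as negative control.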

Compound	AC50 [1]	IC50 ([2]; Homo sapiens, UM-UC-9, 144 h)	IC50 [2]
COc1cc(-c2cc(C(=O)N3CCC(C(=O)NCc4ccc5[nH]c(C)nc5c4)CC3)n[nH]2)c(Cl)cn1 [Example 215, 1-(5-(5-chloro-2-methoxypyridin-4-yl)-1H-pyrazole-3-carbonyl)-N-((2-methyl-1H-benzo[d]imidazol-5-yl)methyl)piperidine-4-carboxamide]	265 nM	> 5000 nM	
COc1cc(-c2cc(C(=O)N3CC[C@H](C(=O)Nc4cnn5ccc(C#N)nc45)CC34CC4)n[nH]2)c(F)cn1 [Example 487, (S)—N-(5-cyanopyrazolo[1,5-a]pyrimidin-3-yl)-4-(5-(5-fluoro-2-methoxypyridin-4-yl)-1H-pyrazole-3-carbonyl)-4-azaspiro[2.5]octane-7-carboxamide]	0.7 nM	2.4 nM	
COc1cc(-c2cc(C(=O)N3CCC(C(=O)NC4CCN(C5COC56CNC6)C4)CC34CC4)n[nH]2)c(F)cn1 (mixture of isomers) [Example 461]	440 nM		> 10000 nM
COc1cc(-c2cc(C(=O)N3CCC(C(=O)NCc4ccc5c(c4)CC(=O)N5)CC3)n[nH]2)c(Cl)cn1 [Example 167, 1-(5-(5-chloro-2-methoxypyridin-4-yl)-1H-pyrazole-3-carbonyl)-N-((2-oxoindolin-5-yl)methyl)piperidine-4-carboxamide]	112 nM	4040 nM	
COc1cc(-c2cc(C(=O)N3CCC(C(=O)N[C@H]4CC[C@@](O)(C(F)(F)F)CC4)CC3)n[nH]2)c(Cl)cn1 [Example 199, 1-(5-(5-chloro-2-methoxypyridin-4-yl)-1H-pyrazole-3-carbonyl)-N-((1r,4r)-4-hydroxy-4-(trifluoromethyl)cyclohexyl)piperidine-4-carboxamide]	32 nM	140 nM	
COc1cc(-c2cc(C(=O)N3CCC(C(=O)NC4CCCn5cc(C(F)(F)F)nc54)CC34CC4)n[nH]2)c(F)cn1 (mixture of isomers) [Example 502, (S)-4-(5-(5-fluoro-2-methoxypyridin-4-yl)-1H-pyrazole-3-carbonyl)-N—((S)-2-(trifluoromethyl)-5,6,7,8-tetrahydroimidazo[1,2-a]pyridin-8-yl)-4-azaspiro[2.5]octane-7-carboxamide and (S)-4-(5-(5-fluoro-2-methoxypyridin-4-yl)-1H-pyrazole-3-carbonyl)-N—((R)-2-(trifluoromethyl)-5,6,7,8-tetrahydroimidazo[1,2-a]pyridin-8-yl)-4-azaspiro[2.5]octane-7-carboxamide]	11.8 nM		50.6 nM
CCC1CCC(NC(=O)C2CCN(C(=O)c3cc(-c4ccnc(OC)c4)[nH]n3)CC2)CC1 (racemic) [Example 108, N-(4-ethylcyclohexyl)-1-(5-(2-methoxypyridin-4-yl)-1H-pyrazole-3-carbonyl)piperidine-4-carboxamide]	178 nM	830 nM	
COc1cc(-c2cc(C(=O)N3CC[C@H](C(=O)NC(C)c4cn5c(n4)COCC5)CC34CC4)n[nH]2)c(F)cn1 (single isomer, unassigned) [Example 415-A]	88.1 nM		304 nM
(1R,3s,5S)—N-((1r,4R)-4-ethoxy-4-(trifluoromethyl)cyclohexyl)-8-(5-(5-fluoro-2-methoxypyridin-4-yl)-1H-pyrazole-3-carbonyl)-8-azabicyclo[3.2.1]octane-3-carboxamide and (1R,3s,5S)—N-((1s,4S)-4-ethoxy-4-(trifluoromethyl)cyclohexyl)-8-(5-(5-fluoro-2-methoxypyridin-4-yl)-1H-pyrazole-3-carbonyl)-8-azabicyclo[3.2.1]octane-3-carboxamide [Example 303]	7.3 nM		41.5 nM
COc1cc(-c2cc(C(=O)N3CCC(C(=O)NCc4ccc5cn[nH]c5c4)CC3)n[nH]2)c(Cl)cn1 [Example 180, N-((1H-indazol-6-yl)methyl)-1-(5-(5-chloro-2-methoxypyridin-4-yl)-1H-pyrazole-3-carbonyl)piperidine-4-carboxamide]	144 nM	707 nM	
COc1cc(-c2cc(C(=O)N3CC[C@H](C(=O)NCc4cccnc4C(F)(F)F)CC34CC4)[nH]n2)c(F)cn1 [Example 500, (S)-4-(3-(5-fluoro-2-methoxypyridin-4-yl)-1H-pyrazole-5-carbonyl)-N-((2-(trifluoromethyl)pyridin-3-yl)methyl)-4-azaspiro[2.5]octane-7-carboxamide]	7.5 nM	13.3 nM	
O=C(NC1CCC(O)(C(F)(F)F)CC1)C1CCN(C(=O)c2cc(-c3cc(Cl)ncc3F)[nH]n2)C2(CC2)C1 (single isomer, unassigned) [Example 529-A]	756 nM		5560 nM
COc1cc(-c2cc(C(=O)N3CCC(C(=O)NCc4cc5cc[nH]c5cn4)CC3)n[nH]2)c(Cl)cn1 [Example 212, N-((1H-pyrrolo[2,3-c]pyridin-5-yl)methyl)-1-(5-(5-chloro-2-methoxypyridin-4-yl)-1H-pyrazole-3-carbonyl)piperidine-4-carboxamide]	79.2 nM	782 nM	
COc1cc(-c2cc(C(=O)N3CCC(C(=O)NC4CCC(C)CC4)CC3)n[nH]2)ccn1 (mixture of isomers) [Example 105, 1-(5-(2-methoxypyridin-4-yl)-1H-pyrazole-3-carbonyl)-N-(4-methylcyclohexyl)piperidine-4-carboxamide]	537 nM	1020 nM	
COc1cc(-c2cc(C(=O)N3CC[C@H](C(=O)NC4CCN(CC(C)(C)O)C4)CC34CC4)[nH]n2)c(F)cn1 (stereo partly drawn) [Example 345-A, (S)-4-(3-(5-Fluoro-2-methoxypyridin-4-yl)-1H-pyrazole-5-carbonyl)-N-(1-(2-hydroxy-2-methylpropyl)pyrrolidin-3-yl)-4-azaspiro[2,5]octane-7-carboxamide]	161 nM	445 nM	
COc1cc(-c2cc(C(=O)N3CCC(NC(=O)C4CCC(O)(C(F)(F)F)CC4)CC34CC4)n[nH]2)c(F)cn1 (single isomer, unassigned) [Example 347-B]	198 nM		600 nM
COc1cc(-c2cc(C(=O)N3CC[C@H](C(=O)NC45COC(CO)(C4)C5)CC34CC4)n[nH]2)c(F)cn1 [Example 520, (S)-4-(5-(5-fluoro-2-methoxypyridin-4-yl)-1H-pyrazole-3-carbonyl)-N-(1-(hydroxymethyl)-2-oxabicyclo[2.1.1]hexan-4-yl)-4-azaspiro[2,5]octane-7-carboxamide]	784 nM	> 10000 nM	
COc1cc(-c2cc(C(=O)N3CCC(C(=O)NCC4CCNCC4(F)F)CC34CC4)n[nH]2)c(F)cn1 (mixture of isomers) [Example 511, (S)—N—(((S)-3,3-difluoropiperidin-4-yl)methyl)-4-(5-(5-fluoro-2-methoxypyridin-4-yl)-1H-pyrazole-3-carbonyl)-4-azaspiro[2.5]octane-7-carboxamide and (S)—N—(((R)-3,3-difluoropiperidin-4-yl)methyl)-4-(5-(5-fluoro-2-methoxypyridin-4-yl)-1H-pyrazole-3-carbonyl)-4-azaspiro[2.5]octane-7-carboxamide]	10.6 nM		95.2 nM
COc1cc(-c2cc(C(=O)N3CC[C@H](C(=O)NC4CCN(c5cnc(C)nc5)C4)CC34CC4)n[nH]2)c(F)cn1 (single isomer, unassigned) [Example 453-A]	6 nM		14.7 nM
COc1cc(-c2cc(C(=O)N3CCC(C(=O)NC4CN(C5CCOC5)C4)CC34CC4)n[nH]2)c(F)cn1 (mixture of isomers) [Example 433, (S)-4-(5-(5-fluoro-2-methoxypyridin-4-yl)-1H-pyrazole-3-carbonyl)-N-(1-((S)-tetrahydrofuran-3-yl)azetidin-3-yl)-4-azaspiro[2.5]octane-7-carboxamide and (S)-4-(5-(5-fluoro-2-methoxypyridin-4-yl)-1H-pyrazole-3-carbonyl)-N-(1-((R)-tetrahydrofuran-3-yl)azetidin-3-yl)-4-azaspiro[2.5]octane-7-carboxamide]	89.6 nM		695 nM
CC(=O)c1cc(-c2cc(C(=O)N3CCC(C(=O)NCc4ncc(F)cc4Cl)CC34CC4)n[nH]2)c(F)cn1 (centres unmarked) [Example 477, 4-(5-(2-acetyl-5-fluoropyridin-4-yl)-1H-pyrazole-3-carbonyl)-N-((3-chloro-5-fluoropyridin-2-yl)methyl)-4-azaspiro[2.5]octane-7-carboxamide]	42.8 nM	307 nM	
COc1cc(-c2cc(C(=O)N3CC[C@H](C(=O)NCc4ncc(N5CC(C)NC(C)C5)cc4Cl)CC34CC4)n[nH]2)c(F)cn1 (stereo partly drawn) [Example 434, (7S)—N-((3-chloro-5-(3,5-dimethylpiperazin-1-yl)pyridin-2-yl)methyl)-4-(5-(5-fluoro-2-methoxypyridin-4-yl)-1H-pyrazole-3-carbonyl)-4-azaspiro[2.5]octane-7-carboxamide]	11.9 nM	45.3 nM	
